Laboratory results published in patent US20250205252A1, “7-KETOLITHOCHOLIC ACID FOR USE IN THE TREATMENT OF GUT DYSBIOSIS AND AS A PREBIOTIC” (NZP UK Limited, priority 2022, published 2025).
Where two headings read alike, the source gives them in different places.

Key:
[1] = system: Bacteroides-Prevotella (BAC303); experiment: 3-stage gut model, flow-FISH enumeration, Bacteroides-Prevotella; details: 400 mg/day, 512 h; for Bacteroides-Prevotella (BAC303) population numbers after treatment: transverse region (V2)
[2] = system: total bacteria (EUB-I-II-III); experiment: 3-stage gut model, flow-FISH enumeration, total bacteria; details: for total bacteria (EUB-I-II-III) after treatment: proximal region (V1), 400 mg/day, 512 h (SS2)
Total bacteria = experiment: Batch culture fermentation of faecal slurry, flow-FISH enumeration (Total); type: cell-based; details: 7-KLCA at 5 and 10 h, maltodextrin only at 5 h
[3] = system: Clostridium histolyticum (Chis150); experiment: 3-stage gut model, flow-FISH enumeration, Clostridium histolyticum; type: cell-based; details: FIG. 6
bacterial metabolites = experiment: 3-stage gut model, metabolite spectra analysis by 1H NMR; details: V3 (distal colon)
Eubacterium eligens = experiment: 3-stage gut model, bacterial composition by 16s rRNA sequencing, Eubacterium eligens; details: after treatment, 2% before
[4] = system: Faecalibacterium prausnitzii; experiment: 3-stage gut model, bacterial composition by 16s rRNA sequencing, F. prausnitzii; details: after treatment
Clostridium species = experiment: 3-stage gut model, bacterial composition by 16s rRNA sequencing, Clostridium; type: cell-based; details: after treatment; from 5.6%
Bifidobacterium spp. = experiment: 3-stage gut model, bacterial composition by 16s rRNA sequencing, Bifidobacterium; details: after treatment, V3 (distal colon); lower than the baseline
[5] = system: Desulfovibrionales and Dessulfuromonadales; experiment: Batch culture fermentation of faecal slurry, flow-FISH enumeration (DSV); type: cell-based
[6] = system: Eubacterium rectale (Erec482); experiment: 3-stage gut model, flow-FISH enumeration, Eubacterium rectale; details: across V1, V2 and V3; not statistically significant
[7] = system: Faecalibacterium prausnitzii (Fprau655); experiment: 3-stage gut model, flow-FISH enumeration, Faecalibacterium prausnitzii
[8] = type: in vivo, CD-1 mice
Procedure: The study design: • CTRL 1 Mice on normal diet for 60 days (5 mice) • CTRL 2 Mice on normal diet with 7KLCA at 10 mg/kg for 60 days (5mice) • CTRL 3 Mice on normal diet for 30 days, then 30 days on a high glucose diet (5 mice) • Treated Mice on normal diet for 30 days, then 30 days on a high glucose diet with 7KLCA throughout the study (5 mice)
Standard diet (10.6% fat J/J, 29.0% protein J/J and 60.4% carbohydrate J/J). High glucose diet (10.5% fat J/J, 16.4% protein J/J and 73.1% carbohydrate J/J). For all experimental group, free accesses to tap water The animals were kept in group of 5 animals/sex/group/cage in Plexiglas cages.
Experiments were carried out in 8-12-week-old male CD-1 mice according to the guidelines for the safe use and care of experimental animals in accordance with the Italian D.L. no. 116 of 27 Jan. 1992 and associated guidelines in the European Communities Council (86/609/ECC and 2010/63/UE) including the 3Rs concept (Kilkenny et al, 2010; McGrath et al, 2015). Animals were housed with ad libitum access to food and water and maintained on a 12-hour light/dark cycle. Experimental study groups were randomized and blinded. The animals in the control groups were handled in an identical manner to the treated group using the respective vehicle and the same volume of administration. Tested item formulation or vehicle was administered by oral gavage. The body weight was recorded once before the assignment to the experimental groups, on the first day of administration, and then weekly during the treatment.
The dose of 7-KLCA used in this study was 10 mg/kg/day. The vehicle used was DMSO in saline solution (NaCl 0.9%), 1/3 w/w. 7-KLCA was solubilised in DMSO (1 part w/w) and then resuspended in saline solution (3 parts w/w). This solution (200 μl/mouse) was prepared freshly every day and was kept under magnetic stirring during the daily administration.
The body weight was recorded once before the assignment to the experimental groups, on the first day of administration, and then weekly.
General clinical observations were performed at least once a day, at the same hour. The health condition of the animals was recorded.
After overnight fasting, blood of the animals was collected in serum separator tubes. FIGS. 10 and 13 show the change in body weight for the mice in the study.

[9] = system: Desulfovibrionales (DSV687); experiment: 3-stage gut model, flow-FISH enumeration, Desulfovibrionales; details: FIG. 6
[10] = system: Streptococcus spp. (Strp); experiment: 3-stage gut model, flow-FISH enumeration, Streptococcus; details: FIG. 6
[11] = system: SCFAs acetate, propionate, butyrate and lactate; type: cell-based; details: preliminary results from one donor, FIG. 3
Atopobium-Coriobacterium = experiment: Batch culture fermentation of faecal slurry, flow-FISH enumeration (ATO); type: cell-based
Dialister pneumosintes = experiment: 3-stage gut model, bacterial composition by 16s rRNA sequencing, Dialister pneumosintes; details: after treatment, before 7%
[12] = system: Bifidobacterium spp. (Bif164); experiment: 3-stage gut model, flow-FISH enumeration, Bifidobacterium
Eubacterium rectale = experiment: 3-stage gut model, bacterial composition by 16s rRNA sequencing, Eubacterium rectale; details: after treatment, proximal region of the colon; before 4%
[13] = system: Bacteroides xylanisolvens; experiment: 3-stage gut model, bacterial composition by 16s rRNA sequencing, Bacteroides xylanisolvens; details: after treatment, transverse region; 2% before
Roseburia spp. (Rrec584) = experiment: 3-stage gut model, flow-FISH enumeration, Roseburia; details: across V1, V2 and V3; not statistically significant
[14] = system: bacterial metabolites lactate, acetate, butyrate, propionate and valerate; experiment: 3-stage gut model, bacterial metabolite quantification by GC-MS; type: cell-based
Bifidobacterium species = experiment: Batch culture fermentation of faecal slurry, flow-FISH enumeration (BIF); type: cell-based
[15] = HGD+7KLCA vs CTRL 3 (HGD), day 60
[16] = normal diet 60 days, CTRL 2 vs CTRL 1
[17] = V1, V2 and V3, not statistically significant

Q: Which results are given for `C[C@H](CCC(=O)O)[C@H]1CC[C@H]2[C@@H]3[C@@H](O)C[C@@H]4C[C@H](O)CC[C@]4(C)[C@H]3CC[C@]12C` [UDCA, ursodeoxycholic acid, reference compound]?
A: Bacteroides-Prevotella (BAC303) population numbers after treatment [1]: 6.94±0.33 Log10 CFU/mL; total bacteria (EUB-I-II-III) after treatment [2]: 8.74±0.50 Log10 CFU/mL

Q: What does the source list for `C[C@H](CCC(=O)O)[C@H]1CC[C@H]2[C@@H]3C(=O)C[C@@H]4C[C@H](O)CC[C@]4(C)[C@H]3CC[C@]12C` [7-KLCA, 3α-hydroxy-7-oxo-5β-cholanic acid]?
A: change in total bacteria, statistical significance (Total bacteria): statistically significant increases; increases in pathogenic Clostridium histolyticum [3]: no statistically significant increases; alanine in 1H NMR spectrum (bacterial metabolites; after treatment): detected; acetate peaks in 1H NMR spectrum (bacterial metabolites; after vs before treatment): higher peaks; bacterial metabolite iso-leucine in 1H NMR spectrum (bacterial metabolites; after vs before treatment): presence after treatment; bacterial metabolite leucine in 1H NMR spectrum (bacterial metabolites; after vs before treatment): presence after treatment; propionate peaks in 1H NMR spectrum (bacterial metabolites; after vs before treatment): higher peaks; peaks of butyrate in 1H NMR spectrum (bacterial metabolites; after vs prior to treatment): greater; abundance of Eubacterium eligens (Eubacterium eligens; V1): 2%; abundance of Eubacterium eligens (Eubacterium eligens; V2): 5%; abundance of Eubacterium eligens (Eubacterium eligens; V3): 2%; abundance of F. prausnitzii ([4]; V3 (distal colon), from 0.6%): 10%; abundance of Faecalibacterium prausnitzii ([4]; proximal region of the colon (V1), before 4%): 17%; abundance of F. prausnitzii, of total bacterial composition ([4]; transverse region of the colon (V2)): 18%; Clostridium species, of total bacterial species detected (Clostridium species): 4.5%; abundance of Bifidobacterium spp. (Bifidobacterium spp.): 5%; increases in pathogenic species Desulfovibrionales and Desulfuromonadales [5]: no increases; change in Eubacterium rectale between baseline and after treatment [6]: increase; change in numbers of Faecalibacterium prausnitzii between baseline and after treatment ([7]; 7KLCA: V2 and V3): statistically significant increases; numbers of Faecalibacterium prausnitzii after treatment ([7]; V2, baseline Log10 7.47±0.91 CFU/mL): 8.81±0.09 Log10 CFU/mL; numbers of Faecalibacterium prausnitzii after treatment ([7]; V3, baseline Log10 6.95±0.97 CFU/mL): 8.39±0.22 Log10 CFU/mL; toxicity ([8]; 10 mg/kg, 60 days, oral gavage): no toxicity was observed; blood glucose levels ([8]; HGD+7KLCA vs CTRL 3 (HGD), after 60 days): significantly lower; HDL cholesterol levels [8, 15]: slight, though not significant, increase; LDL cholesterol levels [8, 15]: significantly reduced; total cholesterol levels [8, 15]: significantly reduced; weight gain ([8]; after switch to HGD diet (days 30-60), 10 mg/kg/day, CTRL 3 gained significantly more): gained a similar amount of weight to the mice on the normal diet; weight gains ([8]; initial 30-day period on standard diet, treated group vs CTRL 3): no significant difference; insulin levels ([8]; normal diet 30 days followed by HGD diet 30 days): trend of increased insulin levels; weight gains ([8]; normal diet 60 days, 10 mg/kg oral gavage (CTRL 2) vs CTRL 1): no significant difference; blood glucose levels [8, 16]: no significant difference; levels of HDL cholesterol [8, 16]: no significant difference; levels of LDL cholesterol [8, 16]: no significant difference; levels of total cholesterol [8, 16]: no significant difference; increases in pathogenic Desulfovibrionales [9]: no statistically significant increases; increases in pathogenic Streptococcus [10]: no statistically significant increases; SCFA production (metabolic profile) [11]: promoting beneficial SCFA production; increases in pathogenic species Atopobium, Coriobacterium (Atopobium-Coriobacterium): no increases; Dialister pneumosintes, percentage of total bacteria composition (Dialister pneumosintes; distal colon (V3)): 3%; Dialister pneumosintes, percentage of total bacteria composition (Dialister pneumosintes; transverse colon (V2)): 3%; increase in Bifidobacterium spp. (Bif164) between Baseline and after treatment, statistical significance ([12]; 3-stage gut model): no statistically significant increases; observed change in Bifidobacterium spp. numbers after treatment ([12]; across all three stages (V1, 2 and 3)): observed increase; Bifidobacterium spp. (Bif164) numbers after treatment ([12]; transverse region, Baseline Log 10 7.54±1.06 CFU/mL): 8.16±0.13 Log 10 CFU/mL; abundance of Eubacterium rectale (Eubacterium rectale): 18%; abundance of Bacteroides xylanisolvens [13]: 9%; change in Roseburia spp. between baseline and after treatment (Roseburia spp. (Rrec584)): increase; change in acetate concentration ([14]; GC-MS, after treatment vs SS1): no statistically significant changes; change in butyrate concentration ([14]; GC-MS, after treatment vs SS1): no statistically significant changes; change in valerate concentration ([14]; GC-MS, after treatment vs SS1): no statistically significant changes; change in lactate concentration [14, 17]: increases measured; change in propionate concentration [14, 17]: increases measured; Bifidobacterium numbers (Bifidobacterium species; at T5, vessels containing 7-KLCA and maltodextrin): 7.45±0.16 Log10 CFU/mL; Bifidobacterium numbers (Bifidobacterium species; at T10, vessels containing 7-KLCA and maltodextrin): 7.55±0.21 Log10 CFU/mL; change in Bifidobacterium spp. (BIF) numbers, statistical significance (Bifidobacterium species; batch culture, 7-KLCA at 5 and 10 h): statistically significant increases; Bifidobacterium numbers (Bifidobacterium species; starting value (0 h), vessels containing 7-KLCA and maltodextrin): 6.48±0.14 Log10 CFU/mL; Bacteroides-Prevotella population numbers after treatment ([1]; distal region (V3)): 7.69±0.15 Log10 CFU/mL; Bacteroides-Prevotella (BAC303) population numbers after treatment [1]: 8.47±0.24 Log10 CFU/mL; numbers of total bacteria after treatment versus Baseline ([2]; all three regions of the model, not significant): greater; total bacteria (EUB-I-II-III) after treatment [2]: 9.35±0.16 Log10 CFU/mL
